From patent US9493451B2 (Bionomics Limited, priority 2011, dated 2016)

Target: T1, Kv1.3 (Homo sapiens, UniProt P22001)
T1 construct: expressed in transfected cells; host or cells: CHO (Kv1.3/CHO)
Experiment: Electrophysiology: planar patch-clamp of Kv1.3 currents, IC50 from steady state current amplitude
Type: cell-based
Details: Kv1.3 electrophysiology, results according to Method D1, read-out: IC50 (Kv1.3 ephys steady state)
Procedure: The inhibition data shown for the compounds of the list below was calculated using the steady state current amplitude at the end of the depolarising pulse in patch clamp evaluations (as described in the Biology Protocols: 1. Electrophysiology).
Kv1.x currents were measured in Kv1.3/CHO or Kv1.5/CHO cells using a planar electrode version (Nanion Technologies GMBH) of the patch-clamp technique. Whole-cell Kv1.x current transients were evoked by 500 ms depolarising voltage pulses to +40 mV from a holding potential of −80 mV applied at 10 s intervals for Kv1.5 and at 30 s intervals for Kv1.3 to allow adequate time for recovery from inactivation. Cells were continuously bathed in a buffered saline solution containing (mM): 160 NaCl, 4.5 KCl, 2 CaCl2, 1 MgCl2, 5 glucose, 10 HEPES, pH 7.4, 290-310 mOsm·Kg^−1. The internal (pipette) solution contained (mM): 10 NaCl, 70 KF, 75 KCl, 2 MgCl2, 10 HEPES, 10 EGTA, pH 7.2, 290-310 mOsm·Kg^−1. Series resistance compensation (60-80%) was applied to cells in which the peak current amplitude exceeded 2 nA.
Compound Preparation and Potency Assessment
Compounds were initially dissolved in DMSO to 10 mM. After further dilution in DMSO, compounds were finally diluted in bath solution 1/200 (to give a final DMSO concentration of 0.5%) and applied directly to the recording chamber. Compounds were added at increasing concentrations allowing ample time for steady state block to be achieved between each concentration. Each compound was tested at 5-6 different concentrations on 2-3 cells. Compound IC50 values were determined by fitting the average normalised reduction of either the current integral or the steady state current amplitude at the end of the 500 ms depolarising pulse obtained at each compound concentration to the Hill equation. The IC50 data reported herein is based on the steady state calculation.

T1 sequence (P22001 whole entry): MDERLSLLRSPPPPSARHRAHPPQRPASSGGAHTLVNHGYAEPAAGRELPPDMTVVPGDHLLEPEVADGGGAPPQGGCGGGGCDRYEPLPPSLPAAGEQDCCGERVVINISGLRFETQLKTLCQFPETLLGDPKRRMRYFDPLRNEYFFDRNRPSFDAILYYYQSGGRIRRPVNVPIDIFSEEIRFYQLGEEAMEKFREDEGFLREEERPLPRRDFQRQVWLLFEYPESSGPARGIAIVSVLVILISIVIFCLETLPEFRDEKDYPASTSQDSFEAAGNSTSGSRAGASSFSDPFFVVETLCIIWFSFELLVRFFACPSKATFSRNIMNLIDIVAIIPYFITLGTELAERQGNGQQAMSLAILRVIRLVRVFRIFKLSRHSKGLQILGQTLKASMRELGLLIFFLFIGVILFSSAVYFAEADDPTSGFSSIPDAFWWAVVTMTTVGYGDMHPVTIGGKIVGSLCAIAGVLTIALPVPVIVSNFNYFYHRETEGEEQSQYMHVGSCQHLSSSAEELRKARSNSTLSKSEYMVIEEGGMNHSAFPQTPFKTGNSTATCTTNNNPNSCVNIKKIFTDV

Row | SMILES | IC50 [nM]
1 | CCS(=O)(=O)c1cccc(C(C2CCN(C)CC2)N(Cc2ccc(F)cn2)C(=O)C2CC2c2ccc(F)cc2)c1 (centres unmarked) [Example 143] | 200 to 1000
2 | CN1CC(C(c2ccc(OC(F)(F)F)cc2)N(Cc2cncc(F)c2)C(=O)C2CC2c2ccc(F)cc2)C1 (centres unmarked) [Example 163] | 200 to 1000
3 | CCC(c1ccc(S(C)(=O)=O)cc1)N(Cc1ccc(C(F)(F)F)nc1)C(=O)C1CC1c1ccc(F)cc1 (centres unmarked) [Example 121] | 50 to 200
4 | CCS(=O)(=O)c1cccc(C(C2CC2)N(Cc2ccc(F)cn2)C(=O)C2CC2c2ccc(F)cc2F)c1 (centres unmarked) [Example 193] | 50 to 200
5 | CC(C)C(c1ccc(OC(F)F)cc1)N(Cc1cccnn1)C(=O)C1CC1c1ccc(F)cc1 (centres unmarked) [Example 113] | 200 to 1000
6 | O=C(C1CC1c1ccc(F)cc1)N(Cc1cccnn1)C(c1ccc(F)cc1)C1CCOC1 (centres unmarked) [Example 174] | 50 to 200
7 | CCC(c1ccc(S(C)(=O)=O)cc1)N(Cc1cccnn1)C(=O)C1CC1c1ccc(F)cc1 (centres unmarked) [Example 124] | 200 to 1000
8 | O=C(C1CC1c1ccc(F)cc1)N(Cc1ccc(F)cn1)C(c1ccc(F)cc1)C1CCOC1 (centres unmarked) [Example 176] | 50 to 200
9 | O=C(CS(=O)(=O)c1ccc(F)cc1)N(C1CCOCC1)C(c1ccc(OC(F)F)cc1)C1CC1 (centres unmarked) [Example 317] | 200 to 1000
10 | CCS(=O)(=O)c1ccc(C(C2CC2)N(Cc2ccc(F)cn2)C(=O)C2CC2c2cccc(C(F)(F)F)c2)cc1 (centres unmarked) [Example 228] | 50 to 200
11 | CN1CCC(C(c2ccc(OC(F)F)cc2)N(C(=O)C2CC2c2ccc(F)cc2)C2CCOCC2)CC1 (centres unmarked) [Example 140] | 1000 to 2000
12 | CCS(=O)(=O)c1cccc(C(C2CC2)N(Cc2ccccn2)C(=O)C2CC2c2cccc(C(F)(F)F)c2)c1 (centres unmarked) [Example 216] | 50 to 200
13 | CCC(c1ccc(S(=O)(=O)CC)cc1)N(Cc1ccc(F)cn1)C(=O)C1CC1c1ccc(F)cc1 (centres unmarked) [Example 116] | 200 to 1000
14 | CC(C)C(c1ccc(OC(F)F)cc1)N(Cc1cccnn1)C(=O)C1CC1c1ccc(F)cc1 (centres unmarked) [Example 114] | 50 to 200
15 | CN1CCC(C(c2cccc(C(F)(F)F)c2)N(Cc2ccc(F)cn2)C(=O)C2CC2c2ccc(F)cc2)CC1 (centres unmarked) [Example 147] | 200 to 1000
16 | CC(C)C(c1ccc(OC(F)F)cc1)N(Cc1ccc(F)cn1)C(=O)C1CC1c1ccc(F)cc1 (centres unmarked) [Example 110] | < 50
17 | CN1CC(C(c2ccc(OC(F)(F)F)cc2)N(Cc2ccc(F)cn2)C(=O)C2CC2c2ccc(F)cc2)C1 (centres unmarked) [Example 159] | 200 to 1000
18 | CCS(=O)(=O)c1cccc(C(C2CC2)N(Cc2cccnn2)C(=O)C2CC2c2cccc(C(F)(F)F)c2)c1 (centres unmarked) [Example 226] | 200 to 1000
19 | CN1CC(C(c2ccc(OC(F)F)cc2)N(Cc2ccc(C(F)(F)F)cn2)C(=O)C2CC2c2ccc(F)cc2)C1 (centres unmarked) [Example 161] | 200 to 1000
20 | CN1C2CCC1CC(N(C(=O)CS(=O)(=O)c1ccccc1)C(c1ccc(Cl)cc1)C1CC1)C2 (racemic) [Example 93, N-[(4-chlorophenyl)(cyclopropyl)methyl]-N-(8-methyl-8-azabicyclo[3.2.1]oct-3-yl)-2-(phenylsulfonyl)acetamide] | 50 to 200
21 | O=C(C1CC1c1ccc(F)cc1)N(Cc1ccc(F)cn1)C(c1ccc(F)cc1)C1CCOC1 (centres unmarked) [Example 175] | 200 to 1000
22 | CC(c1ccc(S(C)(=O)=O)cc1)N(Cc1cccnn1)C(=O)C1CC1c1ccc(F)cc1 (centres unmarked) [Example 123] | 200 to 1000
23 | CC(c1ccc(S(C)(=O)=O)cc1)N(Cc1ccc(C(F)(F)F)nc1)C(=O)C1CC1c1ccc(F)cc1 (centres unmarked) [Example 126] | 200 to 1000
24 | CC(C)[C@@H](c1ccc(F)cc1)N(CCN1CCC(F)CC1)C(=O)C1(S(=O)(=O)c2ccc(F)cc2)CC1 (single isomer, unassigned) [Example 94] | 50 to 200
25 | CCS(=O)(=O)c1cccc(C(C2CC2)N(C(=O)C2CC2c2ccccc2OC(F)(F)F)C2CCOCC2)c1 (centres unmarked) [Example 220] | 50 to 200
26 | O=C(C1CC1c1ccc(F)cc1)N(CCN1CCCC(F)(F)C1)C(c1ccc(OC(F)F)cc1)C1CC1 (centres unmarked) [Example 186] | 200 to 1000
27 | CCC(c1ccc(S(C)(=O)=O)cc1)N(Cc1ccc(F)cn1)C(=O)C1CC1c1ccc(F)cc1 (centres unmarked) [Example 122] | 50 to 200
28 | CCS(=O)(=O)c1cccc(C(C2CC2)N(Cc2ccc(F)cn2)C(=O)C2CC2c2cccc(C(F)(F)F)c2)c1 (centres unmarked) [Example 212] | 50 to 200
29 | COc1ccccc1[C@@H](C)N(Cc1ccccn1)C(=O)CCc1cccc(C(F)(F)F)c1 [Example 61, N-[(1R)-1-(2-methoxyphenyl)ethyl]-N-(pyridin-2-ylmethyl)-3-[3-(trifluoromethyl)phenyl]propanamide] | 50 to 200

More lines, now with the values ahead:

Row | IC50 [nM] | SMILES
30 | 50 to 200 | Cc1ccc(CN(C(=O)CS(=O)(=O)c2ccccc2)C(c2ccc(OC(F)F)cc2)C2CC2)cn1 (centres unmarked) [Example 322]
31 | 200 to 1000 | O=C(N(Cc1ccccn1)[C@H](c1ccc(OC(F)F)cc1)C1CC1)C1(S(=O)(=O)c2ccc(F)cc2)CC1 [Example 92, N-{cyclopropyl[4-(difluoromethoxy)phenyl]methyl}-1-[(4-fluorophenyl)sulfonyl]-N-(pyridin-2-ylmethyl)cyclopropanecarboxamide]
32 | 50 to 200 | COc1ccc(CN(C(=O)CS(=O)(=O)c2ccc(F)cc2)C(c2ccc(Cl)cc2)C2CC2)cn1 (centres unmarked) [Example 295]
33 | 200 to 1000 | O=C(C1CC1c1ccc(F)cc1)N(Cc1ncccc1F)C(c1ccc(F)cc1)C1CNC1 (centres unmarked) [Example 157]
34 | 200 to 1000 | CC(C(=O)N(Cc1ccccn1)C(c1ccc(Cl)cc1)C1CC1)S(=O)(=O)c1ccc(F)cc1 (single isomer, unassigned) [Example 297]
35 | 50 to 200 | CC(CC(=O)N(Cc1cccc[n+]1[O-])C(c1ccc(Cl)cc1)C1CC1)c1ccc(F)cc1 (centres unmarked) [Example 272]
36 | 50 to 200 | O=C(C1CC1c1ccc(F)cc1F)N(Cc1cccnn1)C(c1ccc(OC(F)F)cc1)C1CC1 (centres unmarked) [Example 182]
37 | 50 to 200 | O=C(CS(=O)(=O)c1ccccc1)N(Cc1cccnn1)C(c1ccc(OC(F)F)cc1)C1CC1 (centres unmarked) [Example 305]
38 | 50 to 200 | Cc1cccc(CN(C(=O)CS(=O)(=O)c2ccc(F)cc2)C(c2ccccc2OC(F)(F)F)C2CC2)n1 (centres unmarked) [Example 331]
39 | 50 to 200 | CC(C)S(=O)(=O)c1ccc(C(C2CC2)N(Cc2cccnn2)C(=O)C2CC2c2ccc(F)cc2)cc1 (centres unmarked) [Example 237]
40 | 200 to 1000 | O=C(C1CC1c1ccc(F)cc1)N(Cc1cccnn1)C(c1ccc(S(=O)(=O)C2CC2)cc1)C1CC1 (centres unmarked) [Example 248]
41 | < 50 | Cn1cc(CN(C(=O)C2CC2c2ccc(F)cc2)C(c2ccc(OC(F)F)cc2)C2CC2)cn1 (centres unmarked) [Example 190]
42 | 200 to 1000 | CC(C)(C(=O)N(Cc1cccnn1)C(c1ccc(OC(F)F)cc1)C1CC1)S(=O)(=O)c1ccc(F)cc1 (centres unmarked) [Example 311]
43 | 50 to 200 | CN1CC(C(c2ccc(F)cc2)N(Cc2ncccc2F)C(=O)C2CC2c2ccc(F)cc2)C1 (centres unmarked) [Example 156]
44 | 200 to 1000 | CN1CC(C(c2ccc(OC(F)F)cc2)N(Cc2ncccc2F)C(=O)C2CC2c2ccc(F)cc2)C1 (centres unmarked) [Example 150]
45 | 200 to 1000 | O=C(C1CC1c1ccc(F)cc1)N(Cc1ccc(F)cn1)C(c1ccc(S(=O)(=O)C2CC2)cc1)C1CC1 (centres unmarked) [Example 250]
46 | < 50 | CC(CC(=O)N(Cc1ccc(F)cn1)C(c1ccc(S(=O)(=O)C(C)C)cc1)C1CC1)c1ccc(F)cc1 (centres unmarked) [Example 264]
47 | 50 to 200 | CC(CC(=O)N(Cc1ccc(F)cn1)C(c1ccc(F)cc1)C1CCCO1)c1ccc(F)cc1 (centres unmarked) [Example 270]
48 | 50 to 200 | CCS(=O)(=O)c1cccc(C(C2CC2)N(Cc2ncccc2F)C(=O)C2CC2c2ccc(F)cc2)c1 (centres unmarked) [Example 218]
49 | 50 to 200 | O=C([C@@H]1C[C@H]1c1ccc(F)cc1)N(Cc1cccnn1)[C@H](c1ccc(OC(F)F)cc1)C1CC1 [Example 98, (1R,2R)-2-(4-Fluoro-phenyl)-cyclopropanecarboxylic acid [(S)-cyclopropyl-(4-difluoromethoxy-phenyl)-methyl]-pyridazin-3-ylmethyl-amide]
50 | 200 to 1000 | CC(C)S(=O)(=O)c1cccc(C(C2CC2)N(Cc2cccnn2)C(=O)C2CC2c2ccc(F)cc2)c1 (centres unmarked) [Example 241]
51 | 50 to 200 | O=C(CS(=O)(=O)c1ccccc1)N(Cc1ncccc1F)C(c1ccc(OC(F)F)cc1)C1CC1 (centres unmarked) [Example 304]
52 | 50 to 200 | CCS(=O)(=O)c1ccc(C(C2CC2)N(Cc2ccc(F)cn2)C(=O)C2CC2c2ccc(F)cc2F)cc1 (centres unmarked) [Example 230]
53 | 50 to 200 | COc1ccc(CN(C(=O)CC(C)S(=O)(=O)c2ccc(F)cc2)C(c2ccc(OC(F)F)cc2)C2CC2)cn1 (centres unmarked) [Example 88, N-{cyclopropyl[4-(difluoromethoxy)phenyl]methyl}-3-[(4-fluorophenyl)sulfonyl]-N-[(6-methoxypyridin-3-yl)methyl]butanamide]
54 | 200 to 1000 | CC(C)S(=O)(=O)c1ccc(C(C2CC2)N(Cc2ncccc2F)C(=O)C2CC2c2ccc(F)cc2)cc1 (centres unmarked) [Example 234]
55 | 50 to 200 | CCS(=O)(=O)c1cccc(C(C2CC2)N(Cc2ccc(F)cn2)C(=O)CC(C)c2ccccc2C(F)(F)F)c1 (centres unmarked) [Example 265]
56 | 50 to 200 | CCS(=O)(=O)c1ccc(C(C2CC2)N(Cc2ccc(F)cn2)C(=O)C2CC2c2ccc(F)cc2)cc1 (centres unmarked) [Example 233]
